According to patent US20120066778A1, “CONTROL OF URIC ACID HOMEOSTASIS” (priority 2009, published 2012):

B1: mUox: intracellular variant of the urate oxidase from Aspergillus flavus codon-optimized for expression in mammalian cells (protein, UniProt Q00511 2-302, looked up)
Uricase: SAVKAARYGKDNVRVYKVHKDEKTGVQTVYEMTVCVLLEGEIETSYTKADNSVIVATDSIKNTIYITAKQNPVTPPELFGSILGTHFIEKYNHIHAAHVNIVCHRWTRMDIDGKPHPHSFIRDSEEKRNVQVDVVEGKGIDIKSSLSGLTVLKSTNSQFWGFLRDEYTTLKETWDRILSTDVDATWQWKNFSGLQEVRSHVPKFDATWATAREVTLKTFAEDNSASVQATMYKMAEQILARQQLIETVEYSLPNKHYFEIDLSWHKGLQNTGKNAEVFAPQSDPNGLIKCTVGRSSLKSKL
modifications: codon-optimized for mammalian expression
notes: intracellular variant of the urate oxidase from Aspergillus flavus codon-optimized for expression in mammalian cells

Tests used:
[1] = test system: UREX sensor circuit (mUTS, hucO8); assay: Uric acid response of UREX-controlled SEAP expression in cultured human cells; type: cell-based; settings: 5 mM uric acid added to cultures transfected with pCK9 and pCK25, 48 h
Protocol: (d) Functional validation of the UREX sensor circuit. 4×10^4 HeLa cells were co-transfected with the UREX expression vectors pCK9 and pCK25 (see FIG. 1a) and cultivated for 48 h in the presence or absence of 5 mM uric acid before SEAP was quantified in the cell culture supernatant.
(e-g) Urate-dependent dose-response characteristics of UREX in the presence and absence of the human urate transporter URAT1. 3×10^5 HeLa (e), HEK-293 (f) or HT-1080 cells (g) were co-transfected with the UREX sensor plasmids pCK9 and pCK25 (see FIG. 1a) and either pURAT1 (PhCMV-URAT1-pA) or the isogenic control vector pcDNA3.1. The transfected populations were cultivated in medium supplemented with different uric acid concentrations and resulting SEAP levels were profiled after 48 h.
(b) Urate-based dose-response profile of the triple-transgenic HEK-293UREX15 cell line stably engineered for UREX-controlled SEAP and constitutive URAT1 expression. 5×10^4 HEK-293UREX15 were cultivated in the presence of different urate concentrations and SEAP levels were quantified in the culture supernatant after 72 h.
(c) Reversibility of the UREX-based uric acid sensor circuit. 2×10^5 HEK-293UREX15 cells were cultivated for 10 days while alternating uric acid concentrations from 0 to 5 mM every 72 h (arrows). […]

[2] = test system: uric acid; assay: Urate reduction in culture medium by mUox/smUox-expressing HeLaURAT1 cells; type: cell-based, human; settings: HeLaURAT1, 0.5 mM uric acid, 72 h, constitutive or mUTS-controlled expression
Protocol: (a) Profiling of urate reduction mediated by constitutive or UREX-controlled expression of an intracellular (mUox) or secretion-engineered (smUox) urate oxidase variant. 2×10^5 HeLaURAT1 cells were co-transfected with either (i) pCK65 (PUREX8-smUox-pA) and isogenic control vector pcDNA3.1, (ii) pCK65 (PUREX8-smUox-pA) and pCK25 (PhEF1α-mUTS-pA), (iii) pCK67 (PUREX8-mUox-pA) and pcDNA3.1 or (iv) pCK67 (PUREX8-mUox-pA) and pCK25 (PhEF1α-mUTS-pA). The cells were cultivated for 72 h with 0.5 mM uric acid before urate levels were determined in the culture supernatant.
(b) Urate degradation profiles UREX-controlled smUox expression. […]
SEAP levels are quantified in cell culture supernatants and mouse serum using a standard p-nitrophenylphosphate-based light absorbance time course (Berger, J., Hauber, J., Hauber, R., Geiger, R. & Cullen, B. R., Gene 66, 1-10 (1988)). Uric acid levels are assessed in cell culture supernatants, murine serum or urine using the Amplex® Red uric acid/uricase assay kit (Invitrogen, Basel, Switzerland, Cat. No. A22181) according to the manufacturer's protocol. […] The addition of uricase triggers the enzymatic conversion of uric acid to allantoin, CO2 and H2O2 that reacts, in the presence of horseradish peroxidase stoichiometrically with Amplex Red reagent to generate the red-fluorescent oxidation product resorufin which can be quantified at 585 nm.

Molecule | effect on SEAP expression [1] | reduction of uric acid in the culture medium [2]
O=c1[nH]c(=O)c2[nH]c(=O)[nH]c2[nH]1 [uric acid, 7,9-dihydro-3H-purine-2,6,8-trione] | derepresses SEAP expression | –
B1 | – | reduces uric acid
